# Literature values in patent publication US20040247633A1, “Novel dermatological composition” (EBERSYTES, LLC, priority 2003, published 2004).
# Details: metal chelate
smiles,measurement,value
CC(O)C(=O)[O-].CC(O)C(=O)[O-].[Cu+2] (stereo not shown) [Copper lacate],Affinity Constant,10^10-10^12
